Experiments:
Assay type in all cases: in vivo
[1] = system: Erysiphe graminis tritici (powdery mildew); experiment: Test 1 greenhouse foliar spray screen, powdery mildew on wheat; conditions: disease control rating, foliar spray on wheat, 400 ppm (+++ at 100 ppm)
[2] = system: Botrytis cinerea (gray mold); experiment: Test 1 greenhouse foliar spray screen, gray mold on grape berries; conditions: disease control rating, spray on grape berries, 400 ppm (+++ at 100 ppm)
[3] = system: Venturia inaequalis (apple scab); experiment: Test 1 greenhouse foliar spray screen, apple scab on apple seedling; conditions: disease control rating, foliar spray on apple seedling, 400 ppm (+++ at 100 ppm)
[4] = system: Cercospora beticola (leaf spot); experiment: Test 1 greenhouse foliar spray screen, leaf spot on sugar beet; conditions: disease control rating, foliar spray on sugar beet, 400 ppm (+++ at 100 ppm)
[5] = system: Pseudoperonospora cubensis (downy mildew); experiment: Test 1 greenhouse foliar spray screen, downy mildew on squash; conditions: for DOWN MDEW: disease control rating, foliar spray on squash, 400 ppm (+++ at 100 ppm)
[6] = system: southern armyworm (Spodopetra eridania Cramer); experiment: Mite/insect screen, SAW; conditions: percent mortality, SAW, SM & MA RATE 200 PPM; for mortality at 200 ppm: Spodoptera eridania, read-out: SAW RESULTS %
In short: (§1)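 Activity is expressed as percent mortality at the indicated spray concentrations. Plants are sprayed to runoff on upper and lower leaf surfaces with aqueous dilutions of an acetone/alcohol emulsifiable formulation, then dried for one hour.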

[7] = system: Twospotted spider mites (Tetranychus urticae Koch); experiment: Mite/insect screen, SM; conditions: for mortality at 200 ppm: Tetranychus urticae, read-out: SM RESULTS %; for mortality at 200 ppm / SM RESULTS %: percent mortality, SAW, SM & MA RATE 200 PPM
In short: as §1

[8] = system: Septoria tritici (leaf blotch); experiment: Test 1 greenhouse foliar spray screen, leaf blotch on wheat; conditions: disease control rating, foliar spray on wheat, 400 ppm (+++ at 100 ppm)
[9] = system: Puccinia recondita tritici (leaf rust); experiment: Test 1 greenhouse foliar spray screen, leaf rust on wheat; conditions: disease control rating, foliar spray on wheat, 400 ppm (+++ at 100 ppm)
corn rootworm = experiment: Mite/insect screen, CRW; conditions: percent mortality, CRW RATE 12.00 PPM; for mortality at 12 ppm: read-out: CRW RESULTS %
In short: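 Each compound, taken up in an emulsifier-containing acetone/alcohol mixture and diluted in water to the stated concentrations, was assessed for percent kill following standard exposure times.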

[10] = system: melon aphids (Aphis gossypii Glover); experiment: Mite/insect screen, MA; conditions: percent mortality, SAW, SM & MA RATE 200 PPM; for mortality at 200 ppm: Aphis gossypii, read-out: MA RESULTS %
In short: as §1

[11] = system: Pyricularia oryzae (rice blast); experiment: whole plant or invertebrate; conditions: disease control rating, foliar spray on rice, 400 ppm (+++ at 100 ppm)
[12] = summary statement in the description

Row | Compound | POWD MDEW [1] | GRAY MOLD [2] | APPL SCAB [3] | LEAF SPOT [4] | DOWN MDEW [5] | activity against downy mildew [5, 12] | mortality at 200 ppm [6] [%] | SAW RESULTS % [6] [%] | mortality at 200 ppm [7] [%] | SM RESULTS % [7] [%] | LEAF BLOT [8] | LEAF RUST [9] | CRW RESULTS % (corn rootworm) [%] | mortality at 12 ppm (corn rootworm) [%] | mortality at 200 ppm [10] [%] | MA RESULTS % [10] [%] | RICE BLAST [11] | activity as miticides [7, 12]
1 | Fc1cccc2c(NCCc3cccc(C(F)(F)F)c3)ccnc12 [Example 95, 8-fluoro-N-[2-[3-(trifluoromethyl)phenyl]ethyl]-4-quinolinamine] | + (20-89% control at 400 ppm) | + (20-89% control at 400 ppm) | + (20-89% control at 400 ppm) | + (20-89% control at 400 ppm) | +++ (90-100% control at 100 ppm) | particularly excellent activity | 20 | 40 | 0 | 0 | +++ (90-100% control at 100 ppm) | +++ (90-100% control at 100 ppm) | 0 | 0 | 0 | 0 | ++ (90-100% control at 400 ppm) | –
2 | Fc1cccc2c(NCCc3ccc(Cl)cc3)ccnc12 [Example 96, N-[2-(4-chlorophenyl)ethyl)-8-fluoro-4-quinolinamine] | + (20-89% control at 400 ppm) | - (0-19% control at 400 ppm) | - (0-19% control at 400 ppm) | +++ (90-100% control at 100 ppm) | +++ (90-100% control at 100 ppm) | – | 100 | 100 | 0 | 0 | +++ (90-100% control at 100 ppm) | +++ (90-100% control at 100 ppm) | 0 | 0 | 0 | 0 | +++ (90-100% control at 100 ppm) | particularly excellent activity
3 | Fc1cccc2c(NCCc3ccc(Cl)cc3Cl)cc(Cl)nc12 [Example 98, 2-chloro-N-[2-(2,4-dichlorophenyl)ethyl]-8-fluoro-4-quinolinamine] | - (0-19% control at 400 ppm) | - (0-19% control at 400 ppm) | - (0-19% control at 400 ppm) | - (0-19% control at 400 ppm) | ++ (90-100% control at 400 ppm) | – | 0 | – | 0 | – | - (0-19% control at 400 ppm) | ++ (90-100% control at 400 ppm) | – | 0 | 0 | – | + (20-89% control at 400 ppm) | –
4 | FC(F)(F)c1cccc2c(NCCc3ccccc3)ccnc12 [Example 99, N-(2-phenylethyl)-8-(trifluoromethyl)-4-quinolinamine] | - (0-19% control at 400 ppm) | - (0-19% control at 400 ppm) | - (0-19% control at 400 ppm) | + (20-89% control at 400 ppm) | +++ (90-100% control at 100 ppm) | – | 0 | – | 0 | – | - (0-19% control at 400 ppm) | +++ (90-100% control at 100 ppm) | – | 0 | 0 | – | ++ (90-100% control at 400 ppm) | –
